Measurements published in article PMC6431521, “Synthesis and Evaluation of ^18F-Labeled Peptide for Gonadotropin-Releasing Hormone Receptor Imaging” (Contrast Media & Molecular Imaging, 2019).

Target: T1, human GnRH membrane preparations (GnRH receptor) (Homo sapiens, UniProt P30968)
T1 construct: purchased Millipore ChemiScreen HTS027M
T1 sequence (P30968 1-328): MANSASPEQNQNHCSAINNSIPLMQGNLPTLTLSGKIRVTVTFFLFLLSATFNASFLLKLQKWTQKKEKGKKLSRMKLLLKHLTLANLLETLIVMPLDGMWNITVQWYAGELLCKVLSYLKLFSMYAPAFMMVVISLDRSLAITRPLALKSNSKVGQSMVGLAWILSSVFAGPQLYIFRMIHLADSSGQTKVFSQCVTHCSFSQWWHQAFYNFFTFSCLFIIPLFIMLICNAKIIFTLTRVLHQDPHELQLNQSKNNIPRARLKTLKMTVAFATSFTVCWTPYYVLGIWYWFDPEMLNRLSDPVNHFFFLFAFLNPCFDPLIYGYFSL
Test: In vitro competitive GnRH receptor binding assay
Settings: for IC50: competitive binding, Millipore ChemiScreen human GnRH membrane preparations, radioligand [131I](His5, D-Tyr6)GnRH, 10^-11 to 10^-5 M peptide, room temperature 1.5 h, pH 7.4, gamma counter, n=3, read-out: GnRH receptor binding affinity IC50
Protocol: GnRH membrane preparations were obtained from Millipore ChemiScreen (HTS027M). The GnRH receptor binding affinities (IC50 values) of FP-D-Lys^6-GnRH, D-Lys^6-GnRH, and NOTA-P-D-Lys^6-GnRH were determined by in vitro competitive binding assay according to the manufacturer's protocol. In brief, 5 μL of Millipore ChemiScreen human GnRH membrane preparations was incubated at room temperature for 1.5 h with approximately 20,000 counts per minute (cpm) of [^131I](His^5, D-Tyr^6)GnRH in the presence of 10^−11 to 10^−5 M of each peptide in 95 μL of binding buffer (50 mM HEPES, 5 mM MgCl2, 1 mM CaCl2, 0.2% BSA, buffer to pH 7.4 using 1 M NaOH). After the incubation, 600 μL of ice-cold washing buffer (50 mM HEPES, 500 mM NaCl, 0.1% BSA, buffer to pH 7.4 using 1 M NaOH) was added to each mixture. Each resulting mixture was filtered through a GF/C filter (Whatman, Clifton, NJ) presoaked in 0.33% polyethylenimine. Each filter was rinsed with 1 mL of ice-cold wash buffer six times. The activities on the filters were measured in a gamma counter (γ-counter).
The GnRH receptor affinities for FP-D-Lys^6-GnRH, D-Lys^6-GnRH, and NOTA-P-D-Lys^6-GnRH were determined using human GnRH membrane preparations and [^131I](His^5, D-Tyr^6)GnRH as the radioligand.

[1] = ratio of IC50 values, GnRH receptor binding

Row | SMILES | IC50 | Potency higher than the reference D-Lys6-GnRH [1] | Decrease of GnRH receptor binding affinity versus D-Lys6-GnRH [1]
1 | CC(C)C[C@H](NC(=O)[C@@H](CCCCN)NC(=O)[C@H](Cc1ccc(O)cc1)NC(=O)[C@H](CO)NC(=O)[C@H](Cc1c[nH]c2ccccc12)NC(=O)[C@H](Cc1cnc[nH]1)NC(=O)[C@@H]1CCC(=O)N1)C(=O)N[C@@H](CCCNC(=N)N)C(=O)N1CCC[C@H]1C(=O)NCC(N)=O [D-Lys^6-GnRH, reference compound] | 15.8 nM | – | –
2 | CC(C)C[C@H](NC(=O)[C@@H](CCCCNC(=O)C(C)F)NC(=O)[C@H](Cc1ccc(O)cc1)NC(=O)[C@H](CO)NC(=O)[C@H](Cc1c[nH]c2ccccc12)NC(=O)[C@H](Cc1c[nH]cn1)NC(=O)[C@@H]1CCC(=O)N1)C(=O)N[C@@H](CCCNC(=N)N)C(=O)N1CCC[C@H]1C(=O)NCC(N)=O (stereo partly drawn) [FP-D-Lys^6-GnRH] | 2 nM | approximately 8 fold | –
3 | CC(C)C[C@H](NC(=O)[C@@H](CCCCNC(=O)CCOCCOCCOCCNC(=O)CN1CCN(CC(=O)O)CCN(CC(=O)O)CC1)NC(=O)[C@H](Cc1ccc(O)cc1)NC(=O)[C@H](CO)NC(=O)[C@H](Cc1c[nH]c2ccccc12)NC(=O)[C@H](Cc1c[nH]cn1)NC(=O)[C@@H]1CCC(=O)N1)C(=O)N[C@@H](CCCNC(=N)N)C(=O)N1CCC[C@H]1C(=O)NCC(N)=O [NOTA-P-D-Lys^6-GnRH] | – | – | approximately 4 fold
